How the values were obtained:
[1] = (§1) The drug is tested on Z-020 corresponding to rabbit gut metagenome with ENA study accession number: PRJEB37062 and ENA sample accession number: ERS12561819 for biotransformation under anaerobic condition. The drug concentrations were measured over 9 timepoints collected between 0 and 24 hours of incubation by liquid-chromatography-coupled mass spectrometry (LC–MS); conditions: 2 µM
[2] = as §1, with “Z-009” for “Z-020”, “pig” for “rabbit”, “ERS12561809” for “ERS12561819”; conditions: 2 µM
[3] = as §1, with “Z-005” for “Z-020”, “to” for “to rabbit gut”, “ERS12561805” for “ERS12561819”; conditions: 2 µM
[4] = as §1, with “Z-003” for “Z-020”, “pig” for “rabbit”, “ERS12561803” for “ERS12561819”; conditions: 2 µM
[5] = as §1, with “WLS-370” for “Z-020”, “human” for “rabbit”, “ERS12561793” for “ERS12561819”; conditions: 2 µM
[6] = as §1, with “WLS-098” for “Z-020”, “human” for “rabbit”, “ERS12561754” for “ERS12561819”; conditions: 2 µM
[7] = as §1, with “WLS-090” for “Z-020”, “human” for “rabbit”, “ERS12561753” for “ERS12561819”; conditions: 2 µM
[8] = as §1, with “WLS-038” for “Z-020”, “human” for “rabbit”, “ERS12561745” for “ERS12561819”; conditions: 2 µM
[9] = human gut metagenome, 24 h, 2 µM
[10] = human gut metagenome, 24 h, 2 µM; remark: listed apart in the source
[11] = human gut metagenome, 24 h, 2 µM; remark: listed apart in the source
[12] = human gut metagenome, 24 h, 2 µM; remark: listed apart in the source
[13] = human gut metagenome, 24 h, 2 µM; remark: listed apart in the source
[14] = human gut metagenome, 24 h, 2 µM; remark: listed apart in the source
[15] = human gut metagenome, 24 h, 2 µM; remark: listed apart in the source
[16] = human gut metagenome, 24 h, 2 µM; remark: listed apart in the source
[17] = human gut metagenome, 24 h, 2 µM; remark: listed apart in the source
[18] = human gut metagenome, 24 h, 2 µM; remark: listed apart in the source
[19] = human gut metagenome, 24 h, 2 µM; remark: listed apart in the source
[20] = human gut metagenome, 24 h, 2 µM; remark: listed apart in the source
Note: call rule not given here.

| Compound | Bacterial Biotransformation [1] | Bacterial Biotransformation [2] | Bacterial Biotransformation [3] | Bacterial Biotransformation [4] | Bacterial Biotransformation [5] | Bacterial Biotransformation [6] | Bacterial Biotransformation [7] | Bacterial Biotransformation [8] | Bacterial Biotransformation [9] | Bacterial Biotransformation [10] | Bacterial Biotransformation [11] | Bacterial Biotransformation [12] | Bacterial Biotransformation [13] | Bacterial Biotransformation [14] | Bacterial Biotransformation [15] | Bacterial Biotransformation [16] | Bacterial Biotransformation [17] | Bacterial Biotransformation [18] | Bacterial Biotransformation [19] | Bacterial Biotransformation [20] |
| --- | --- | --- | --- | --- | --- | --- | --- | --- | --- | --- | --- | --- | --- | --- | --- | --- | --- | --- | --- | --- |
| O=C(NC(Cc1cc(=O)[nH]c2ccccc12)C(=O)O)c1ccc(Cl)cc1 (stereo not given) [REBAMIPIDE] | Compound NOT metabolized | Compound NOT metabolized | Compound NOT metabolized | Compound NOT metabolized | Compound metabolized | Compound NOT metabolized | Compound NOT metabolized | Compound NOT metabolized | Compound NOT metabolized | Compound metabolized | Compound NOT metabolized | Compound NOT metabolized | Compound NOT metabolized | Compound NOT metabolized | Compound NOT metabolized | Compound NOT metabolized | Compound NOT metabolized | Compound NOT metabolized | Compound NOT metabolized | Compound metabolized |
| CCOc1cc(CC(=O)N[C@@H](CC(C)C)c2ccccc2N2CCCCC2)ccc1C(=O)O [REPAGLINIDE] | Compound metabolized | Compound metabolized | Compound metabolized | Compound metabolized | Compound metabolized | Compound metabolized | Compound metabolized | Compound metabolized | Compound metabolized | Compound metabolized | Compound metabolized | Compound metabolized | Compound metabolized | Compound metabolized | Compound metabolized | Compound metabolized | Compound metabolized | Compound NOT metabolized | Compound NOT metabolized | Compound NOT metabolized |
| CC(N)C12CC3CC(CC(C3)C1)C2 (stereo not given) [RIMANTADINE] | Compound NOT metabolized | Compound NOT metabolized | Compound NOT metabolized | Compound NOT metabolized | Compound NOT metabolized | Compound NOT metabolized | Compound NOT metabolized | Compound NOT metabolized | Compound NOT metabolized | Compound NOT metabolized | Compound NOT metabolized | Compound NOT metabolized | Compound NOT metabolized | Compound NOT metabolized | Compound NOT metabolized | Compound NOT metabolized | Compound NOT metabolized | Compound NOT metabolized | Compound NOT metabolized | Compound NOT metabolized |
| CCN(C)C(=O)Oc1cccc([C@H](C)N(C)C)c1.O=C(O)C(O)C(O)C(=O)O [RIVASTIGMINE TARTRATE] | Compound NOT metabolized | Compound NOT metabolized | Compound NOT metabolized | Compound NOT metabolized | Compound NOT metabolized | Compound NOT metabolized | Compound NOT metabolized | Compound metabolized | Compound NOT metabolized | Compound NOT metabolized | Compound NOT metabolized | Compound metabolized | Compound NOT metabolized | Compound NOT metabolized | Compound NOT metabolized | Compound NOT metabolized | Compound NOT metabolized | Compound metabolized | Compound NOT metabolized | Compound NOT metabolized |
| CCCN(CCC)CCc1cccc2c1CC(=O)N2 [ROPINIROLE] | Compound metabolized | Compound NOT metabolized | Compound NOT metabolized | Compound metabolized | Compound NOT metabolized | Compound metabolized | Compound metabolized | Compound NOT metabolized | Compound NOT metabolized | Compound NOT metabolized | Compound metabolized | Compound NOT metabolized | Compound NOT metabolized | Compound NOT metabolized | Compound NOT metabolized | Compound metabolized | Compound NOT metabolized | Compound NOT metabolized | Compound metabolized | Compound NOT metabolized |
| CN[C@H]1CC[C@@H](c2ccc(Cl)c(Cl)c2)c2ccccc21 [SERTRALINE] | Compound metabolized | Compound metabolized | Compound NOT metabolized | Compound metabolized | Compound metabolized | Compound metabolized | Compound metabolized | Compound metabolized | Compound metabolized | Compound NOT metabolized | Compound NOT metabolized | Compound NOT metabolized | Compound NOT metabolized | Compound NOT metabolized | Compound NOT metabolized | Compound metabolized | Compound NOT metabolized | Compound NOT metabolized | Compound metabolized | Compound NOT metabolized |
| O=C(O)CCC(=O)O.O=C(O[C@H]1CN2CCC1CC2)N1CCc2ccccc2[C@@H]1c1ccccc1 [SOLIFENACIN SUCCINATE] | Compound metabolized | Compound metabolized | Compound metabolized | Compound metabolized | Compound metabolized | Compound metabolized | Compound metabolized | Compound metabolized | Compound NOT metabolized | Compound metabolized | Compound NOT metabolized | Compound NOT metabolized | Compound NOT metabolized | Compound NOT metabolized | Compound NOT metabolized | Compound metabolized | Compound metabolized | Compound metabolized | Compound metabolized | Compound NOT metabolized |
| O=C(CCCN1CCC2(CC1)C(=O)NCN2c1ccccc1)c1ccc(F)cc1 [SPIPERONE] | Compound NOT metabolized | Compound metabolized | Compound NOT metabolized | Compound NOT metabolized | Compound NOT metabolized | Compound metabolized | Compound NOT metabolized | Compound NOT metabolized | Compound NOT metabolized | Compound NOT metabolized | Compound metabolized | Compound NOT metabolized | Compound NOT metabolized | Compound NOT metabolized | Compound NOT metabolized | Compound metabolized | Compound NOT metabolized | Compound metabolized | Compound NOT metabolized | Compound NOT metabolized |

Source: ChEMBL document CHEMBL5724914, “Linking interpersonal differences in gut microbiota composition and drug biotransformation activity” (2024)
